Reference: US20240132492A1, “PYRIDOPYRIMIDINE-BASED COMPOUND AND APPLICATION THEREOF” (JINAN UNIVERSITY, priority 2021, published 2024)

What was measured:
Assay type in all cases: cell-based
PC-9 = experiment: CCK-8 tumor cell proliferation, PC-9; conditions: PC-9 cells, 72 hours
Procedure: (§1) Tumor cells (see Table 2 to Table 5) were inoculated in 96-well plates in complete culture medium (2000-3000 cells/well). After overnight incubation, the compounds with different concentrations (0.000508 μM-10 μM) were used to treat the cells separately for 72 hours. CCK-8 (Cell Counting Kit 8, Dojindo Laboratories, Kumamoto, Japan) experiment was used to evaluate cell proliferation. GraphPad Prism 5.0 software (La Jolla, CA) was used to calculate the half-maximal inhibitory concentration (IC50) values by fitting the concentration response curve. Each IC50 value was represented as an average value±SD.

AKT3 = AKT3 (Homo sapiens, UniProt Q9Y243); experiment: Western Blot, degradation of AKT3 protein in H1975-OR cells; set-up: endogenous in cells; host or cells: H1975-OR (osimertinib-resistant H1975); conditions: 24 hours, maximum degradation rate; for Dmax at 1 µM: 1000 nM
Procedure: (§2) Cell line: Non-small cell lung cancer H1975-OR cell line, which is an Osimertinib resistant H1975 cell line, and could be obtained through low dose gradual addition culture. Specific method: H1975 cells were spread in a 10 cm culture dish at a convergence rate of 60-70%, added 50 nM of Osimertinib to the culture medium. After the cell state stabilized, the concentration of Osimertinib was gradually double to 3 μM.
(§3) Conventional Western Blot (immunoblotting) was used for detection, as follows: a certain number of H1975-OR cells were planted on a 96 well plate, adherent cultured in an incubator overnight, and added a certain concentration of compound to act for 24 hours. 1×SDS lysis buffer with protease and phosphatase inhibitors was used to lyse cells. Cell lysates were separated by SDS-PAGE and transferred to PVDF membrane. Then, at room temperature, the PCDF membrane was taken out and immersed in a sealing solution (5% BSA TBS solution containing 0.5% Tween-20) for sealing treatment for 1 hour, and then incubated with a specific primary antibody at 4° C. overnight. The imprints were washed with TBST and incubated with horseradish peroxidase (HRP) labeled secondary antibodies at room temperature for 2 hours. Finally, ECL plus fluorescence detection reagent (Thermo Scientific, Waltham, MA) was used for protein development, and the Amersham Imager 600 system (GE, America) was used for photography. The detection results were processed using ImageJ software to obtain the grayscale value G (Density).

A431 = experiment: CCK-8 tumor cell proliferation, A431; conditions: 72 hours
Procedure: as §1

AKT2 = target: T1, AKT2 (Homo sapiens, UniProt P31751); experiment: Western Blot, degradation of AKT2 protein in H1975-OR cells; conditions: 24 hours, maximum degradation rate; for Dmax at 1 µM: 1000 nM
T1 construct: AKT1, AKT2, and AKT3 proteins in H1975-OR cells; endogenous in cells; host or cells: H1975-OR (osimertinib-resistant H1975)
Procedure: as §2, §3

H1975 = experiment: CCK-8 tumor cell proliferation, H1975; conditions: 72 hours
Procedure: as §1

H1975OR = experiment: CCK-8 tumor cell proliferation, H1975OR; conditions: H1975OR cells (Osimertinib resistant), 72 hours
Procedure: as §2, §1

H1299 = experiment: CCK-8 tumor cell proliferation, H1299; conditions: 72 hours
Procedure: as §1

HCC827 = experiment: CCK-8 tumor cell proliferation, HCC827; conditions: HCC827 cells, 72 hours
Procedure: as §1

AKT1 = target: T2, AKT1 (Homo sapiens, UniProt P31749); experiment: Western Blot, degradation of AKT1 protein in H1975-OR cells; conditions: 24 hours, maximum degradation rate; for Dmax at 1 µM: 1000 nM
T2 construct: AKT1, AKT2, and AKT3 proteins in H1975-OR cells; endogenous in cells; host or cells: H1975-OR (osimertinib-resistant H1975)
Procedure: as §2, §3

[1] = Homo sapiens, A-431, A431 cells
[2] = Homo sapiens, NCI-H1975, H1975 cells
[3] = Homo sapiens, NCI-H1299, H1299 cells

T2 sequence (P31749 whole entry): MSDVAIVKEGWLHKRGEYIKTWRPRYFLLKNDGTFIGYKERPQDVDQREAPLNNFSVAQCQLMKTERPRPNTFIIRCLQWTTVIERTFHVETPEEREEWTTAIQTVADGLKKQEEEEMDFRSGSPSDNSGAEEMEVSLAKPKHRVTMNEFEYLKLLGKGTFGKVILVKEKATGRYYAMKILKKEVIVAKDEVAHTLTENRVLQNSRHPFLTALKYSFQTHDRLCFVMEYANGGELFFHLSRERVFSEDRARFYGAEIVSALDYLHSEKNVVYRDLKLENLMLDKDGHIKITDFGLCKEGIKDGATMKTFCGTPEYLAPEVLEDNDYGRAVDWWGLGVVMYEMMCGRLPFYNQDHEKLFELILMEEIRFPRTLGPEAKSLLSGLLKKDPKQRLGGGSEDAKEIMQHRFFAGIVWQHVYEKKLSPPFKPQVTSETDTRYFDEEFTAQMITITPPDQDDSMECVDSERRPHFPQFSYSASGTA
T1 sequence (P31751 whole entry): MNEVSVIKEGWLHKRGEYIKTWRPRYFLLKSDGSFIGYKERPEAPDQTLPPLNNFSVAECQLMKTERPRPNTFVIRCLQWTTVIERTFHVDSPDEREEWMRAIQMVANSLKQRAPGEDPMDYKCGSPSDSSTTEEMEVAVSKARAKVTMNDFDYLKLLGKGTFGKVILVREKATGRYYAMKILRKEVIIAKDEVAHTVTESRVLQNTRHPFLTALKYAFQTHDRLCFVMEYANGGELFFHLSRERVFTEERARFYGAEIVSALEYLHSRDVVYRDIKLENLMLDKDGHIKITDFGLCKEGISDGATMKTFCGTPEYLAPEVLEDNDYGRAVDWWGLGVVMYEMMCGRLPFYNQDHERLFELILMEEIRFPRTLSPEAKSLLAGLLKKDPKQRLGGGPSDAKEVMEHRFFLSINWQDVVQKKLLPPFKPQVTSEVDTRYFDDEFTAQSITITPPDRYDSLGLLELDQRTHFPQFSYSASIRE
Chain of AKT3 (Q9Y243 whole entry): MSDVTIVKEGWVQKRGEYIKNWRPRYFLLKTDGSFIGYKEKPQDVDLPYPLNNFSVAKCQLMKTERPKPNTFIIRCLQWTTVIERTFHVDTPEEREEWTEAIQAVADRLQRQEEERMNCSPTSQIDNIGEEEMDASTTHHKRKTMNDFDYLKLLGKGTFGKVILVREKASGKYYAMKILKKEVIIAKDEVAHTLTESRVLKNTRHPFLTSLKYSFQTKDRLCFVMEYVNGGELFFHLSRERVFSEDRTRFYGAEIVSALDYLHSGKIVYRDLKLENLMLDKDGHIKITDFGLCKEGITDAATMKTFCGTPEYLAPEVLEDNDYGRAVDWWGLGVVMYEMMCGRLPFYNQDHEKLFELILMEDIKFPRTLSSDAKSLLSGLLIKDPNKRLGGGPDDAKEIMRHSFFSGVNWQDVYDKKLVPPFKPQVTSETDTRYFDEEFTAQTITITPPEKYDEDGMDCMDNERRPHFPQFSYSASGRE

| Structure (SMILES) | IC50 (PC-9) [µM] | Dmax (%) at 1000 nM AKT3 (AKT3) [%] | IC50 (A431; A431 cells) [µM] | Dmax (%) at 1000 nM AKT2 (AKT2) [%] | IC50 (H1975; H1975 cells) [µM] | IC50 (H1975OR) [µM] | IC50 (H1299; H1299 cells) [µM] | IC50 (HCC827) [µM] | Dmax (%) at 1000 nM AKT1 (AKT1) [%] | IC50 (PC-9; Homo sapiens) [µM] | Dmax at 1 µM (AKT3) [%] | IC50 (A431; [1]) [µM] | Dmax at 1 µM (AKT2) [%] | IC50 (H1975; [2]) [µM] | IC50 (H1299; [3]) [µM] | IC50 (HCC827; Homo sapiens) [µM] | Dmax at 1 µM (AKT1) [%] |
| --- | --- | --- | --- | --- | --- | --- | --- | --- | --- | --- | --- | --- | --- | --- | --- | --- | --- |
| C=CC(=O)Nc1cccc(-n2c(=O)cc(C)c3cnc(Nc4ccc(N5CCN(C(=O)CCCCCCCCCCCNC(=O)CC67CC8CC(CC(C8)C6)C7)CC5)cc4OC)nc32)c1 [ZX-HYT-07, N-(3-(2-((4-(4-(12-(2-((3R, 5R, 7R)-adamantan-1-yl)acetylamino)dodecanoyl)piperazin-1-yl)-2-methoxyphenyl)amino)-5-methyl-7-oxypyridino [2,3-d]pyrimidin-8 (7H)-yl)phenyl) acrylamide] | 6.79 ± 3.6 | 69.2 | 0.0839 ± 0.0133 | 0 | 5.07 ± 0.836 | 0.417 ± 0.08 | 1.46 ± 0.428 | 0.882 ± 0.0945 | 0 | – | – | – | – | – | – | – | – |
| C=CC(=O)Nc1cccc(-n2c(=O)cc(C)c3cnc(Nc4ccc(N5CCN(CCCCCCCCCCCCCCNC(=O)CC67CC8CC(CC(C8)C6)C7)CC5)cc4OC)nc32)c1 [ZX-HYT-06, N-(3-(2-((4-(4-(14-(2-((3R, 5R, 7R)-adamantan-1-yl)acetylamino)tetradecyl)piperazin-1-yl)-2-methoxyphenyl)amino)-5-methyl-7-oxypyridino [2,3-d]pyrimidin-8 (7H)-yl)phenyl) acrylamide] | – | – | – | – | – | 0.125 ± 0.012 | – | – | – | 0.0732 ± 0.00431 | 62.9 | 0.26 ± 0.047 | 47 | 0.837 ± 0.11 | 0.163 ± 0.0134 | 0.163 ± 0.0134 | 0 |
| COc1cc(N2CCN(CCCCCCCCCCCCNC(=O)CC34CC5CC(CC(C5)C3)C4)CC2)ccc1Nc1ncc2c(C)cc(=O)n(-c3cccc(NC(=O)C4CCCCC4)c3)c2n1 [ZX-HYT-13, N-(3-(2-((4-(4-(12-(2-(((3R, 5R, 7R)-adamantan-1-yl)acetylamino)dodecyl)piperazin-1-yl)-2-methoxyphenyl)amino)-5-methyl-7-oxypyridino [2,3-d]pyrimidin-8 (7H)-yl)phenyl)cyclohexane formamide] | – | – | – | – | – | 0.216 ± 0.032 | – | – | – | > 10 | – | 2.29 ± 0.0474 | – | 6.96 ± 6.04 | > 10 | 10.7 ± 3.88 | – |
| COc1cc(N2CCN(CCCCCCCCCCCCNC(=O)CC34CC5CC(CC(C5)C3)C4)CC2)ccc1Nc1ncc2c(C)cc(=O)n(-c3cccc(NC(C)=O)c3)c2n1 [ZX-HYT-09, N-(12-(4-(4-((8-(3-acetylaminophenyl)-5-methyl-7-oxy-7,8-dihydropyridino [2,3-d]pyrimidin-2-yl]amino)-3-methoxyphenyl)piperazin-1-yl)dodecyl)-2-((3R, 5R, 7R)-adamantan-1-yl) acetamide] | – | – | – | – | – | 0.0236 ± 0.00351 | – | – | – | 0.215 ± 0.0636 | 75.7 | 0.0106 ± 0.002 | 0 | 0.119 ± 0.0112 | 0.624 ± 0.0448 | 0.134 ± 0.064 | 0 |
| COc1cc(N2CCN(CCCCCCCCCCCCNC(=O)CC34CC5CC(CC(C5)C3)C4)CC2)ccc1Nc1ncc2c(C)cc(=O)n(-c3cccc(N)c3)c2n1 [ZX-HYT-17, 2-((3R, 5R, 7R)-adamantan-1-yl)-N-(12-(4-(4-(8-(3-aminophenyl)-5-methyl-7-oxy-7,8-dihydropyridino [2,3-d]pyrimidin-2-yl)amino)-3-methoxyphenyl)piperazin-1-yl) dodecyl) acetamide] | – | – | – | – | – | 0.023 ± 0.007 | – | – | – | 0.0234 ± 0.00578 | 76.4 | 0.0225 ± 0.0035 | 45.9 | 0.214 ± 0.013 | 2.1 ± 0.049 | 0.186 ± 0.122 | 46.4 |
| COc1cc(N2CCN(CCCCCCCCCCCCNC(=O)CC34CC5CC(CC(C5)C3)C4)CC2)ccc1Nc1ncc2c(C)cc(=O)n(-c3cccc(NC(=O)C(C)C)c3)c2n1 [ZX-HYT-10, N-(3-(2-((4-(4-(12-(2-(((3R, 5R, 7R)-adamantan-1-yl)acetylamino)dodecyl)piperazin-1-yl)-2-methoxyphenyl)amino)-5-methyl-7-oxypyridino [2,3-d]pyrimidin-8 (7H)-yl)phenyl)isobutylamide] | – | – | – | – | – | 0.0196 ± 0.00141 | – | – | – | 0.126 ± 0.0177 | 57.1 | 0.0517 | 25.3 | 0.142 ± 0.0494 | 1.81 ± 0.395 | 0.309 ± 0.139 | 0 |
| C=CC(=O)Nc1cccc(-n2c(=O)cc(C)c3cnc(Nc4ccc(N5CCN(CCCCCCNC(=O)CC67CC8CC(CC(C8)C6)C7)CC5)cc4OC)nc32)c1 [ZX-HYT-02, N-(3-(2-((4-(4-(6-(2-(((3R, 5R, 7R)-adamantan-1-yl)acetamido)hexyl)piperazin-1-yl)-2-methoxyphenyl)amino)-5-methyl-7-oxypyridino [2,3-d]pyrimidin-8 (7H)-yl)phenyl)acrylamide] | – | – | – | – | – | 0.167 ± 0.025 | – | – | – | 0.255 ± 0.0394 | 30.8 | 0.102 ± 0.0095 | 0 | 0.194 ± 0.063 | 8.74 ± 1.12 | 0.105 ± 0.00819 | 0 |
| C=CC(=O)Nc1cccc(-n2c(=O)cc(C)c3cnc(Nc4ccc(N5CCN(CCCCCCCCCCNC(=O)CC67CC8CC(CC(C8)C6)C7)CC5)cc4OC)nc32)c1 [ZX-HYT-04, N-(3-(2-((4-(4-(10-(2-(((3R, 5R, 7R)-adamantan-1-yl)acetylamino)decyl)piperazin-1-yl)-2-methoxyphenyl)amino)-5-methyl-7-oxypyridino [2,3-d]pyrimidin-8 (7H)-yl)phenyl)acrylamide] | – | – | – | – | – | 0.083 ± 0.019 | – | – | – | 0.0181 ± 0.00105 | 26.6 | 0.0102 ± 0.002 | 0 | 1.77 ± 0.187 | 0.305 ± 0.166 | 0.0555 ± 0.0327 | 0 |
| C=CC(=O)Nc1ccc(-n2c(=O)cc(C)c3cnc(Nc4ccc(N5CCN(CCCCCCCCCCCCNC(=O)CC67CC8CC(CC(C8)C6)C7)CC5)cc4OC)nc32)cc1 [ZX-HYT-14, N-(4-(2-((4-(4-(12-(2-(((3R, 5R, 7R)-adamantan-1-yl)acetylamino)dodecyl)piperazin-1-yl)-2-methoxyphenyl)amino)-5-methyl-7-oxypyridino [2,3-d]pyrimidin-8 (7H)-yl)phenyl)acrylamide] | – | – | – | – | – | > 10 | – | – | – | > 10 | – | > 10 | – | > 10 | > 10 | > 10 | – |
| C=CC(=O)Nc1cccc(-n2c(=O)cc(C)c3cnc(Nc4ccc(N5CCN(CCOCCOCCNC(=O)CC67CC8CC(CC(C8)C6)C7)CC5)cc4OC)nc32)c1 [ZX-HYT-01] | – | – | – | – | – | 2.01 ± 0.444 | – | – | – | 1.57 ± 0.258 | 67.6 | 0.541 ± 0.0589 | 27.2 | 3.27 ± 0.598 | 10.4 ± 1.72 | 0.141 ± 0.0372 | 59.2 |
| C=CC(=O)Nc1cccc(-n2c(=O)cc(C)c3cnc(Nc4ccc(N5CCN(CCCCCCCCCCCCNC(=O)CC67CC8CC(CC(C8)C6)C7)CC5)cc4OC)nc32)c1 [ZX-HYT-05, N-(3-(2-((4-(4-(12-(2-(((3R, 5R, 7R)-adamantan-1-yl)acetylamino)dodecyl)piperazin-1-yl)-2-methoxyphenyl)amino)-5-methyl-7-oxypyridino [2,3-d]pyrimidin-8 (7H)-yl)phenyl)acrylamide] | – | – | – | – | – | 0.009 ± 0.002 | – | – | – | 0.0083 ± 0.000333 | 71.9 | 0.00806 ± 0.0003 | 29.9 | 5.19 ± 4.59 | 0.338 ± 0.0855 | 0.126 ± 0.0216 | 34.4 |
